Counter-ions that a name gives are not always drawn.
Biological target: T1, MerTK (Homo sapiens, UniProt Q12866)
T1 construct: endogenous in cells; host or cells: Jurkat cells
T1 sequence (Q12866 21-999): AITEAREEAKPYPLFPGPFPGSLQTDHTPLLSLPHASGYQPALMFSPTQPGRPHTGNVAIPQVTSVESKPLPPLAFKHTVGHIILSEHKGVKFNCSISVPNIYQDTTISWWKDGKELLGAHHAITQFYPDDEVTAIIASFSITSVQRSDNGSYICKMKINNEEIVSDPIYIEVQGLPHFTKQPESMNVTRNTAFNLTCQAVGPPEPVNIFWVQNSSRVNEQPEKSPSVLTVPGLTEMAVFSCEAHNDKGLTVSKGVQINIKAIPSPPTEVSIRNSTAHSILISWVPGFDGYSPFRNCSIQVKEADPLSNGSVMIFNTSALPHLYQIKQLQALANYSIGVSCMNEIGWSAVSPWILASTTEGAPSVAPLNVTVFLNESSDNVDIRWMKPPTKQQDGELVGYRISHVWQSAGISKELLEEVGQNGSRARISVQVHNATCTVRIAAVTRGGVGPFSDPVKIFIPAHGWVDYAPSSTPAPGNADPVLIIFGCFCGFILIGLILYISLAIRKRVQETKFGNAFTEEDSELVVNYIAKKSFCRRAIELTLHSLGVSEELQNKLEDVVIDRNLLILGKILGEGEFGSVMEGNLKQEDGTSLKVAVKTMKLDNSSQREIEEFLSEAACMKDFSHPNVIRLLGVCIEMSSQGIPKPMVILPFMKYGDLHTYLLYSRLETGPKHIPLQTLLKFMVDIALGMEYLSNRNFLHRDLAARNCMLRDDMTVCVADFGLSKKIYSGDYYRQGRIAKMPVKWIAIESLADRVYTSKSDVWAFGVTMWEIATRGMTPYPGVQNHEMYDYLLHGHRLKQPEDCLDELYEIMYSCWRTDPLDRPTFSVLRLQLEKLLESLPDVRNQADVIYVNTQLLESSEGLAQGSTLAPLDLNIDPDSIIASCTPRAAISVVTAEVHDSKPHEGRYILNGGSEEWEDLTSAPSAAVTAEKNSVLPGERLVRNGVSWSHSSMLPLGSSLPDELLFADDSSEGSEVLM
Experiment: MerTk degradation in Jurkat cells (Western blot)
Format: cell-based
Conditions: 0.001-1 μM, 4 hour-incubation at 37° C., read-out: Jurkat Max % MerTK Degradation
In short: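 Jurkat cells treated 4 h at 37 °C with compound at 0.001-1 μM final. RIPA lysates quantified by BCA, then MerTK probed by Western blot against actin loading control with IR-dye secondaries and Odyssey imaging.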

| SMILES | Dmax [%] |
| --- | --- |
| CCCCNc1ncc2c(-c3ccc(CNCCCOCCCOCCCc4cccc5c4n(C)c(=O)n5C4CCC(=O)NC4=O)cc3)cn([C@H]3CC[C@H](O)CC3)c2n1 (stereo partly drawn) [I-6, Trans-3-[4-[3-(3-[3-[([4-[2-(butylamino)-7-[4-hydroxycyclohexyl]-7H-pyrrolo[2,3-d]pyrimidin-5-yl]phenyl]methyl)amino]propoxy]propoxy)propyl]-3-methyl-2-oxo-2,3-dihydro-1H-1,3-benzodiazol-1-yl]piperidine-2,6-dione] | > 50 |

Same assay, conditions: Jurkat, 4 h, 0.001-1 μM, 4 hour-incubation at 37° C., read-out: Jurkat Max % MerTK Degradation

| SMILES | Dmax [%] |
| --- | --- |
| N[C@H]1CCCC[C@H]1Nc1cc2nc[nH]c(=O)c2c(Nc2cccc3c2ccn3CCOCCOCCOCCOCCNc2cccc3c2C(=O)N(C2CCC(=O)NC2=O)C3=O)n1 (stereo partly drawn) [I-227] | > 50 |
| COc1ccc(Nc2nc(Nc3cc(OCCOCCOCCOCCOCC(=O)N[C@H](C(=O)N4C[C@H](O)C[C@H]4C(=O)NCc4ccc(-c5scnc5C)cc4)C(C)(C)C)c(OC)cc3C)ncc2Cl)c(NS(C)(=O)=O)c1 [I-228] | 20 to 50 |
| Cc1ncsc1-c1ccc(CNC(=O)[C@@H]2C[C@@H](O)CN2C(=O)[C@@H](NC(=O)COCCOCCOCCOCCn2ccc3c(Nc4nc(N[C@@H]5CCCC[C@@H]5N)nnc4C(N)=O)cccc32)C(C)(C)C)cc1 [I-229] | < 20 |
| Cc1ncsc1-c1ccc(CNC(=O)[C@@H]2C[C@@H](O)CN2C(=O)[C@@H](NC(=O)COCCOCCOCCOCCn2ccc3c(Nc4nc(N[C@@H]5CCCC[C@@H]5N)cc5nc[nH]c(=O)c45)cccc32)C(C)(C)C)cc1 [I-230] | < 20 |
| COc1ccc(Nc2nc(Nc3cc(OCCOCCOCCOCCOCCNc4cccc5c4C(=O)N(C4CCC(=O)NC4=O)C5=O)c(OC)cc3C)ncc2Cl)c(NS(C)(=O)=O)c1 (stereo not drawn) [I-231] | < 20 |
| COc1cc(Nc2nc(N[C@H]3CCCC[C@H]3N)n3ccnc3c2C(N)=O)cc(OCCOCCOCCOCCNc2cccc3c2C(=O)N(C2CCC(=O)NC2=O)C3=O)c1 (stereo partly drawn) [I-232] | < 20 |
| CCC1CN(c2ccc(-c3ccnc(Nc4cc(OC)c(OC)c(OCCOCCOCCOCCOCC(=O)N[C@H](C(=O)N5C[C@H](O)C[C@H]5C(=O)NCc5ccc(-c6scnc6C)cc5)C(C)(C)C)c4)n3)cn2)CCN1 (stereo partly drawn) [I-233] | > 50 |
| CCC1CN(c2ccc(-c3ccnc(Nc4cc(OC)c(OC)c(OCCOCCOCCOCCOCCNc5cccc6c5C(=O)N(C5CCC(=O)NC5=O)C6=O)c4)n3)cn2)CCN1 (stereo not drawn) [I-234] | < 20 |
| CC(O)c1ccc2c(c1)n(C)c(=O)n2C1CCC(=O)NC1=O (stereo not drawn) [I-236] | > 50 |

Next, values leading:

| Dmax [%] | SMILES |
| --- | --- |
| > 50 | CCCCNc1ncc2c(-c3ccc(S(=O)(=O)N4CCN(CCOCCOCCOCCOCCCc5ccc6c(c5)n(C)c(=O)n6C5CCC(=O)NC5=O)CC4)cc3)cn([C@H]3CC[C@H](O)CC3)c2n1 (stereo partly drawn) [I-12, 3-(5-(1-(4-(4-(2-(Butylamino)-7-(trans-4-hydroxycyclohexyl)-7H-pyrrolo [2,3-d]pyrimidin-5-yl)phenylsulfonyl)piperazin-1-yl)-3,6,9,12-tetraoxapentadecan-15-yl)-3-methyl-2-oxo-2,3-dihydrobenzo[d]imidazol-1-yl)piperidine-2,6-dione] |
| > 50 | CCCCNc1ncc2c(-c3ccc(S(=O)(=O)N4CCN(CCOCCOCCOCCOCCCc5cccc6c5n(C)c(=O)n6C5CCC(=O)NC5=O)CC4)cc3)cn([C@H]3CC[C@H](O)CC3)c2n1 (stereo partly drawn) [I-13, 3-[4-[1-(4-[4-[2-(Butylamino)-7-[trans-4-hydroxycyclohexyl]-7H-pyrrolo [2,3-d]pyrimidin-5-yl]benzenesulfonyl]piperazin-1-yl)-3,6,9,12-tetraoxapentadecan-15-yl]-3-methyl-2-oxo-2,3-dihydro-1H-1,3-benzodiazol-1-yl]piperidine-2,6-dione formate] |
| 20 to 50 | CCC[C@H](C)Nc1ncc2c(n1)n([C@H]1CC[C@H](O)CC1)cc2[C@H]1CC[C@H](CN2CCN(CCCOC3CN(Cc4ccc5c(c4)n(C)c(=O)n5C4CCC(=O)NC4=O)C3)CC2)CC1 (stereo partly drawn) [I-223, 3-[3-methyl-2-oxo-5-([3-[3-(4-[[trans-4-[2-[(2S)-pentan-2-ylamino]-7-[trans-4-hydroxycyclohexyl]pyrrolo[2,3-d]pyrimidin-5-yl]cyclohexyl]methyl]piperazin-1-y1)propoxy]azetidin-1-yl]methyl)-1,3-benzodiazol-1-yl]piperidine-2,6-dione] |
| < 20 | C[C@H](CC(F)(F)F)Nc1ncc2c(-c3ccc(CN4CCN(CCCOCCCc5ccc6c(c5)n(C)c(=O)n6C5CCC(=O)N(C)C5=O)CC4)cc3)cn([C@H]3CC[C@H](O)CC3)c2n1 (stereo partly drawn) [I-224, 1-methyl-3-[3-methyl-2-oxo-5-[3-(3-[4-[(4-[7-[trans-4-hydroxycyclohexy1]-2-[[(2R)-4,4,4-trifluorobutan-2-yl]amino]pyrrolo[2,3-d]pyrimidin-5-yl]phenyl)methyl]piperazin-1-yl]propoxy)propyl]-1,3-benzodiazol-1-yl]piperidine-2,6-dione] |
| < 20 | C[C@@H](CC(F)(F)F)Nc1ncc2c(-c3ccc(CN4CCN(CCCOCCCc5ccc6c(c5)n(C)c(=O)n6C5CCC(=O)N(C)C5=O)CC4)cc3)cn([C@H]3CC[C@H](O)CC3)c2n1 (stereo partly drawn) [I-225, 1-methyl-3-[3-methyl-2-oxo-5-[3-(3-[4-[(4-[7-[trans-4-hydroxycyclohexy1]-2-[[(2S)-4,4,4-trifluorobutan-2-yl]amino]pyrrolo[2,3-d]pyrimidin-5-yl]phenyl)methyl]piperazin-1-yl]propoxy)propyl]-1,3-benzodiazol-1-yl]piperidine-2,6-dione] |

Biological target: T2, MerTK (Mus musculus, UniProt Q60805)
T2 construct: endogenous in cells; host or cells: RAW264 cells
T2 sequence (Q60805 19-994): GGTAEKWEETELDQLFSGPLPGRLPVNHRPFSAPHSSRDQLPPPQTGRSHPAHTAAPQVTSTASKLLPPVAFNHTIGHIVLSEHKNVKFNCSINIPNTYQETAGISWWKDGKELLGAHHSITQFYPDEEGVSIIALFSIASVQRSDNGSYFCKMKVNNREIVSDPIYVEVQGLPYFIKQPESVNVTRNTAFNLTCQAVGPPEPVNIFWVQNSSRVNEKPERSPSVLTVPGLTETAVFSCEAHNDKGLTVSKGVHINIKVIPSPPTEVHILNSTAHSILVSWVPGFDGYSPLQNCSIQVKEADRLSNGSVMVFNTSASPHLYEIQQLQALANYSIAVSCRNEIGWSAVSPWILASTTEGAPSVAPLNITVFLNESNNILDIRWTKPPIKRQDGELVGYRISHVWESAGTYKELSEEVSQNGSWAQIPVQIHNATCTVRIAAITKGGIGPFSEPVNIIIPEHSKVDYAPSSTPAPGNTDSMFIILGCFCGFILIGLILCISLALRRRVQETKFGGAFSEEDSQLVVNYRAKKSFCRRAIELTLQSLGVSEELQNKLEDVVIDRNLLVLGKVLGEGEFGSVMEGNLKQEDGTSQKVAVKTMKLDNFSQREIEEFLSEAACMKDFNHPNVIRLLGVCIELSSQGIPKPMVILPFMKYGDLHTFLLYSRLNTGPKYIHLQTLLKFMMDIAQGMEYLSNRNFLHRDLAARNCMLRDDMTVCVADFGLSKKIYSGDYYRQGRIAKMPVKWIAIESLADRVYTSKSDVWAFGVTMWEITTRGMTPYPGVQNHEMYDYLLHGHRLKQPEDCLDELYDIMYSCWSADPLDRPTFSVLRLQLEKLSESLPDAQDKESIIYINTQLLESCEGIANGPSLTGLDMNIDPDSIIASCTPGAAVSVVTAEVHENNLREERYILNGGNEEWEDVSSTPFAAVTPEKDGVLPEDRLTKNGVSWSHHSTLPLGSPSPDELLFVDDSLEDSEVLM
Experiment: MerTK degradation in RAW264 cells (Western blot)
Format: cell-based
Conditions: RAW264.7, 0.001-1 μM, 4 hour-incubation at 37° C., read-out: RAW264 Max % MerTK Degradation
Experimental: Compounds were reconstituted in DMSO to make 10 mM stock solutions. RAW264 cells were maintained in DMEM medium containing 10% FBS. Cells were seeded into 6-well plates with 2×10^6 cells per well. 2 μL of diluted compounds were added to cells to the final concentration of 0.001-1 μM. After a 4 hour-incubation at 37° C., cells were washed with DPBS (1×) once. Then RIPA lysis buffer with Halt Protease and Phosphatase Inhibitor Cocktail was added directly to the cells and cells were then incubated on ice for 10 min, then lysate was harvested into 1.5 mL Eppendorf tubes and centrifuged at 14,000 rpm for 10 min at 4° C. and the supernatants were collected for Western blots.
The protein concentration of cell lysates was quantified with Pierce™ BCA Protein Assay Kit. […] BCA working reagents were prepared by mixing BCA reagent A with reagent B in 50: 1 ratio. 200 μL of the BCA working reagents were added to 25 μL of BCA standard or cell lysates in microplate, and mixed thoroughly on a plate shaker for 30 seconds. After incubation at 37° C. for 30 min, the absorbance of samples at 562 nm were measured with EnVision Plate Reader.
Protein lysates were prepared in NuPAGE™ LDS sample buffer and NuPAGE™ sample reducing agent, and incubated at 95° C. for 5 min. […] The proteins were transferred to low fluorescence PVDF membranes using the Trans-Blot Turbo Transfer System. Membranes were then blocked in Odyssey blocking buffer at RT for 1 h followed by primary incubation at 4° C. overnight. The primary antibodies were MerTK goat polyclonal antibody and actin mouse monoclonal antibody. Membranes were washed three times with TBST (1×), and then incubated with IR Dye 800 CW Donkey anti-goat and IR Dye 700 CW Goat anti-mouse secondary antibodies in 1:10,000 dilution at RT for 1 h. The Western blot images were obtained using Odyssey Imaging System.

| Dmax [%] | SMILES |
| --- | --- |
| > 50 | CCCCNc1ncc2c(-c3ccc(S(=O)(=O)N4CCN(CCOCCOCCOCCOCCCc5ccc6c(c5)n(C)c(=O)n6C5CCC(=O)NC5=O)CC4)cc3)cn([C@H]3CC[C@H](O)CC3)c2n1 (stereo partly drawn) [I-12, 3-(5-(1-(4-(4-(2-(Butylamino)-7-(trans-4-hydroxycyclohexyl)-7H-pyrrolo [2,3-d]pyrimidin-5-yl)phenylsulfonyl)piperazin-1-yl)-3,6,9,12-tetraoxapentadecan-15-yl)-3-methyl-2-oxo-2,3-dihydrobenzo[d]imidazol-1-yl)piperidine-2,6-dione] |
| > 50 | CCCCNc1ncc2c(-c3ccc(S(=O)(=O)N4CCN(CCOCCOCCOCCOCCCc5cccc6c5n(C)c(=O)n6C5CCC(=O)NC5=O)CC4)cc3)cn([C@H]3CC[C@H](O)CC3)c2n1 (stereo partly drawn) [I-13, 3-[4-[1-(4-[4-[2-(Butylamino)-7-[trans-4-hydroxycyclohexyl]-7H-pyrrolo [2,3-d]pyrimidin-5-yl]benzenesulfonyl]piperazin-1-yl)-3,6,9,12-tetraoxapentadecan-15-yl]-3-methyl-2-oxo-2,3-dihydro-1H-1,3-benzodiazol-1-yl]piperidine-2,6-dione formate] |

| SMILES | Dmax [%] |
| --- | --- |
| CCCCNc1ncc2c(-c3ccc(CNCCCOCCCOCCCc4cccc5c4n(C)c(=O)n5C4CCC(=O)NC4=O)cc3)cn([C@H]3CC[C@H](O)CC3)c2n1 (stereo partly drawn) [I-6, Trans-3-[4-[3-(3-[3-[([4-[2-(butylamino)-7-[4-hydroxycyclohexyl]-7H-pyrrolo[2,3-d]pyrimidin-5-yl]phenyl]methyl)amino]propoxy]propoxy)propyl]-3-methyl-2-oxo-2,3-dihydro-1H-1,3-benzodiazol-1-yl]piperidine-2,6-dione] | > 50 |

From patent publication US20260042762A1 (Kymera Therapeutics, Inc., priority 2018, published 2026)
